How the values were obtained:
[1] = Stability of a mix of the 9 TE at pH 2.2 with 200 mM malic acid in a glass bottle; type: physicochemical; conditions: heat sterilized, about 3 ppm dissolved oxygen; for Concentration recovered, T6 M 5° C. / Percentage of the recovered TE, T6 M 5° C.: 6 months at 5° C.; for Concentration recovered, T6 M 5° C. / Concentration recovered, T6 M 40° C.: pH 2.2, 200 mM malic acid; for Percentage of the recovered TE, T6 M 5° C. / Percentage of the recovered TE, T6 M 40° C.: relative to theoretical concentration; for Concentration recovered, T6 M 40° C. / Percentage of the recovered TE, T6 M 40° C.: 6 months at 40° C.
Method: The presence of oxygen promotes selenite stability. To ensure that it is not deleterious to another TE the stability of a mix of the 9 TE of interest (i.e. Zn, Cu, Cr, Mo, Mn, Fe, I, F & Se) was evaluated at pH 2.2 with 200 mM of malic acid (to ensure Iodide stability) and stored in a glass bottle (so containing about 3 ppm of dissolved oxygen). The solution was heat sterilized and stored 6 months at 40° C. or 5° C. (T6M 40° C. and T6M 5° C., respectively).

[2] = cited from earlier work
[3] = Full factorial DoE on the stability of Selenite (container material, pH, sterilization, storage temperature, dissolved oxygen); type: physicochemical
Method: A full factorial DoE was designed to evaluate the impact of five factors on the stability of Selenite:
Container material: an interaction between Selenite and plastic bags material was previously highlighted. To evaluate this factor a neutral material i.e. glass bottles was used as a comparison to plastic bags.
pH of the solution: all previous studies were conducted at pH<3.5 to ensure stability of Fe. A comparison with a native pH>7 obtained by simple dilution of Selenite into MilliQ water allowed to evaluate the impact of this parameter.
Sterilization: the terminal heat sterilization conducted on samples may initiate degradative chemical reactions by heat exposure. Unsterilized VS sterilized samples were compared regarding Selenite stability to assess the impact of this process step.
Storage temperature: accelerated stability studies are classically conducted at 40° C. However, selenite might be sensitive to it and a comparison with samples stored at 5° C. was conducted.
Dissolved oxygen content: oxygen is involved in many redox reactions most of the time deleterious for macro and micronutrients (particularly vitamins). To assess the impact of this parameter on Selenite stability, solutions of Selenite were flushed either with oxygen (up to saturation at about 8 ppm) or with nitrogen (DO<0.5 ppm).
All combinations of factors were produced and stored under appropriate conditions for 6 months. They were then submitted to several tests to evaluate the impact of each factor on several responses.
The following readouts were performed in order to assess the impact of the factors listed above:
Se assay to evaluate the degradation of Selenium.
Visual inspection of the samples to detect any precipitate, particles or discoloration.
pH measurement to evaluate the evolution of sample pH after 6 months storage.
Dissolved oxygen measurement to evaluate the evolution of the dissolved oxygen after 6 months of storage. […]

Structure (SMILES) | Concentration recovered, T6 M 5° C. [1] | Percentage of the recovered TE, T6 M 5° C. [1] | Concentration recovered, T6 M 40° C. [1] | Percentage of the recovered TE, T6 M 40° C. [1] | Chemical form; Solubility in water [2] | Stability in solution ([3]; absence of stable amount of DO in the said range, storage for more than 1-3 months) | Stability in solution ([3]; products with stable DO concentration of above 0.5 ppm, specifically 0.5 ppm to 8 ppm) | Oxygen amount sufficient to ensure the stability of Selenite in solution ([3]; regression of Se assay against log dissolved oxygen, sterilized samples stored at 40° C. (FIG. 2))
[Cl][Cr]([Cl])[Cl] [Cr, chromium chloride] | 306 ng/mL | 77.3% | 329 ng/mL | 83.1% | 585 mg/mL |  |  | 
[Cl][Cu][Cl] [Cu, copper chloride] | 9784 ng/mL | 81.1% | 10504 ng/mL | 87.1% | 706 mg/mL |  |  | 
[F-].[Na+] [F, sodium fluoride] |  | 94% |  | 88% |  |  |  | 
[I-].[K+] [I, potassium iodide] | 3167 ng/mL | 78.6% | 3401 ng/mL | 84.4% |  |  |  | 
[Na+].[Na+].[O]=[Mo](=[O])([O-])[O-] [Mo, sodium molybdate] | 653 ng/mL | 79.9% | 707 ng/mL | 86.6% |  |  |  | 
O=[Se](O)O [Selenite, sodium selenite] |  |  |  |  |  | instable | stable | around 0.5 ppm
[Cl-].[Cl-].[Zn+2] [Zn, zinc chloride] | 158347 ng/mL | 77.8% | 171822 ng/mL | 84.4% | 4.32 kg/L |  |  | 

Reference: US12714725B2, “Stabilization of selenite in a nutritional solution by dissolved oxygen” (BAXTER INTERNATIONAL INC., priority 2019, dated 2026)
